Experimental findings from patent publication US7470669B2, “Isolated polypeptide comprising a leptin fragment” (Serono Genetics Institute, S.A., priority 1999, dated 2008) are described below.

Bounds are passed on as bounds.

In this assay the test system is db/db mice. Nature of the assay: Postprandial plasma TG response after high-fat test meal in db/db mice. It counts as in vivo, mouse. The method, then:
FIGS. 1A and 1B show the effect of leptin on postprandial plasma TG response in db/db and db^Pas/db^Pas mice. Overnight-fasted db/db (A), db^Pas/db^Pas (B) mice were gavage-fed a high-fat test meal and immediately injected intravenously (db/db) or intraperitoneally (db^Pas/db^Pas) with saline (open symbols) or 50 μg mouse recombinant leptin (closed symbols). At the indicated times, blood was collected from the tail (A) or orbital (B) vein, plasma was separated by centrifugation, and plasma TG concentrations were determined using an enzymatic kit. Each point represents the mean±SEM (db/db: saline, n=4, leptin, n=3; db^Pas/db^Pas: saline, n=6, leptin, n=7). The average plasma lipid response in 10 control C57BL6 mice is shown as a dotted line in both A and B. In a separate experiment, shown as an inset for each strain of mice, overnight fasted db/db (●) or db^Pas/db^Pas (▪) mice were gavage-fed the test meal and immediately injected intravenously with increasing concentrations of leptin. The plasma lipid response was then measured as in A and B. The area under the response curve (AUC) was then calculated using a triangulation method on Microsoft Excel between 0 and 4 hr (mg TG·h/mL). Values are presented as % of control value (test meal alone obtained in A or B). Each point represents the mean of at least 3 mice.
Mice that were fasted for 2-3 hours were gavage-fed 300 μL of a test meal consisting of 60% fat (37% saturated, 27% mono-, and 36% polyunsaturated fatty acids), 20% protein and 20% carbohydrate, and providing 56 kcal of energy/kg (1.5 g butter, 1.5 g sunflower oil, 2.5 g nonfat dry milk, 2.5 g sucrose and 3 ml water). Immediately after the meal, the animals were injected intravenously (db/db) or intraperitoneally (db^Pas/db^Pas) with either 200 μL physiological saline or 200 μL of the same solution containing recombinant mouse leptin. […] TG concentrations were determined using a commercially available enzymatic kit with controls included in each assay (Precinorm L, Roche-Boehringer Mannheim; Lyotrol N, BioMérieux). […]

For the substance “leptin: plasma protein of 16 kDa produced by adipocytes; recombinant human or mouse leptin, species depends on the experiment”, the “area under the TG curve” value (250 ng leptin per animal, AUC 0-4 h) was “significant reduction”. Moreover, the “decrease of the area under the postprandial TG curve” value (500 ng leptin per animal (maximum effect)) is > 80%. Moreover, the “amplitude of the triglyceride response” value (single bolus 50 μg mouse recombinant leptin i.v. at time of test meal) is reported as “decreased the amplitude of the triglyceride response”.
